# Laboratory results: ChEMBL document CHEMBL3751764, “Synthesis and in vitro antiproliferative activity of novel pyrazolo[3,4-d]pyrimidine derivatives” (Medchemcomm, 2015)
# Active and inactive are the calls of the source. The rule behind the calls is not given here.
# Legend:
# [1] = molecular target: Epidermal growth factor receptor (Homo sapiens) (UniProt P00533); assay: Inhibition of human EGFR at 10 uM after 20 to 40 mins by liquid scintillation counting analysis in presence of […]
# SR = assay: Cytotoxicity against human SR cells after 72 hrs by SRB assay; type: functional
# [2] = Cytotoxicity against human HCC2998 cells after 72 hrs by SRB assay; type: functional; details: HCC 2998, 72 h
# SK-MEL-2 = assay: Cytotoxicity against human SK-MEL-2 cells after 72 hrs by SRB assay; type: functional; details: SK-MEL-2, 72 h
# NCI-H23 = assay: Cytotoxicity against human NCI-H23 cells after 72 hrs by SRB assay; type: functional; details: NCI-H23, 72 h
# [3] = Cytotoxicity against human HOP92 cells after 72 hrs by SRB assay; type: functional; details: HOP-92, 72 h
# [4] = Cytotoxicity against human UACC62 cells after 72 hrs by SRB assay; type: functional; details: UACC-62, 72 h
# [5] = Cytotoxicity against human PC3 cells after 72 hrs by SRB assay; type: functional; details: PC-3, 72 h
# MDA-MB-468 = assay: Cytotoxicity against human MDA-MB-468 cells after 72 hrs by SRB assay; type: functional; details: MDA-MB-468, 72 h
# [6] = read-out: LC50 (the source's name)
# Epidermal growth factor receptor (Homo sapiens), sequence (P00533 whole entry): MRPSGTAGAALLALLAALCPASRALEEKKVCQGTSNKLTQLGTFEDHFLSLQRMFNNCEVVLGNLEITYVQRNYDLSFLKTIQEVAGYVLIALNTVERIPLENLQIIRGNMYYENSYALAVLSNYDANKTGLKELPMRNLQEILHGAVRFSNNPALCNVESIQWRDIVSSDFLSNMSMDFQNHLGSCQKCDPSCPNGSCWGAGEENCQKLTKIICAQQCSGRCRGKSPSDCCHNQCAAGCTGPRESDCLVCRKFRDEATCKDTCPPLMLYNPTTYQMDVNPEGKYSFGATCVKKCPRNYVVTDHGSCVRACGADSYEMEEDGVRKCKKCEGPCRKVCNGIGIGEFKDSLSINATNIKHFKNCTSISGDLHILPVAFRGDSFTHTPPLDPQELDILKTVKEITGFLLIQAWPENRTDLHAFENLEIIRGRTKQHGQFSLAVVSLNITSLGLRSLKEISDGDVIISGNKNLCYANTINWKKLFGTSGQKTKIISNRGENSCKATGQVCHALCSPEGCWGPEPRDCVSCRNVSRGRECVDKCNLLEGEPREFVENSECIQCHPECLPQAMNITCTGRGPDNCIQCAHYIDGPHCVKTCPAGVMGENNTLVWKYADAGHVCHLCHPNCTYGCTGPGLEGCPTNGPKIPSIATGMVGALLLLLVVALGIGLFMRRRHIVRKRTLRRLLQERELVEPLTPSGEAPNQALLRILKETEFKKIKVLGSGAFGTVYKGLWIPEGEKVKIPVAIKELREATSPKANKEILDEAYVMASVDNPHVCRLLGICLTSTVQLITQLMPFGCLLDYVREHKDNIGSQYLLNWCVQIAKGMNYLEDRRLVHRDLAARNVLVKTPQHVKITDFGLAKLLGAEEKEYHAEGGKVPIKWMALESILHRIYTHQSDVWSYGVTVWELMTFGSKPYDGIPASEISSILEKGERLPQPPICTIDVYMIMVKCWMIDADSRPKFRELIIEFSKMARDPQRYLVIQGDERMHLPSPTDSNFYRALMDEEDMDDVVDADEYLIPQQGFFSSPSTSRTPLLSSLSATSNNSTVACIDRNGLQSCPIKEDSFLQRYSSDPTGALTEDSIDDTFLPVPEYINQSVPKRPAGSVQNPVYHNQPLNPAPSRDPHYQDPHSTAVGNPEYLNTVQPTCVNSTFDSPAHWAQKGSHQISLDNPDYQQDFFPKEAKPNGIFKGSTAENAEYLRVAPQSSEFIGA
smiles,measurement,setting,value
Cc1ccc2nc(Nc3ncnc4c3cnn4-c3ccccc3)sc2c1,inhibition,[1],inactive
O=C(NC1CCCCC1)c1ccc(Nc2ncnc3c2cnn3-c2ccccc2)cc1,GI50,SR,11.6 µM
same,TGI,SR,49.1 µM
same,CC50,SR; [6],> 100 µM
same,GI50,[2],> 100 µM
same,TGI,[2],> 100 µM
same,CC50,[2]; [6],> 100 µM
same,GI50,SK-MEL-2,13.6 µM
same,TGI,SK-MEL-2,36.2 µM
same,CC50,SK-MEL-2; [6],96.3 µM
same,GI50,NCI-H23,10.9 µM
same,TGI,NCI-H23,89.9 µM
same,CC50,NCI-H23; [6],> 100 µM
same,GI50,[3],2.53 µM
same,TGI,[3],8.29 µM
same,CC50,[3]; [6],86.6 µM
same,GI50,[4],17.4 µM
same,TGI,[4],> 100 µM
same,CC50,[4]; [6],> 100 µM
same,GI50,[5],11.8 µM
same,TGI,[5],44.8 µM
same,CC50,[5]; [6],> 100 µM
same,GI50,MDA-MB-468,21.7 µM
same,TGI,MDA-MB-468,> 100 µM
same,CC50,MDA-MB-468; [6],> 100 µM
